Series [1] is described as follows: Basic photochemical properties: one-photon photolysis / quantum yield determination by comparison with MNI-Glu. It is filed as physicochemical. Particulars: for φ, quantum yield: Table 1, measured against MNI-Glu, filtered 280-400 nm Hg lamp; for quantum yield of photolysis: pH 7.4, compared with MNI-Glu; for photolyzed faster than MNI-Glu: pH 7.4, continuous-wave mercury arc lamp; for ε · φ: product of extinction coefficient and quantum yield, in M-1 cm-1 (unit assumed). The method, then: The data imply that the quantum yield for release of L-glutamate from CDNI-Glu was about 0.5.
The extent of photolysis was measured either by HPLC (with inosine as the internal standard), or using the inherent changes in the UV-visible absorption spectra of the chromophores (FIGS. 4A-4D).
Quantum yield determination. The quantum yield for uncaging the new caged amino acids (CDNI-Glu, CNL-Glu, CNI-GABA and CNI-GABA) were measured by comparing the time of photolysis with the filtered (280-400 nm) output of a 500 W medium pressure Hg lamp of an equimolar solution (0.25 mM) of MNI-Glu and new cage. Inosine was used an inert internal standard. The path-length of the cuvette was 0.1 mm. The extent of reaction was monitored by HPLC as described previously (Huang, et al., 2005). […] Both methods gave very similar results.

For series [2], the system named is GABA receptors. The series can be described thus: 2-photon uncaging of caged GABA on hippocampal CA1 neurons in acutely isolated brain slices. Particulars: for concentration of caged compound required to evoke currents / laser power required to evoke currents: 2-photon uncaging; for laser power required to evoke currents: 720 nm; for block of GABA receptor by the cage before uncaging: CNI-GABA at high concentrations, CDNI-GABA in smaller amount. In kind it is cell-based, rat.

Series [3] in a line: Two-photon (action) cross section. It is filed as physicochemical. The settings on record: for δ (relative), two-photon action cross section: MNI-Glu = 1. The procedure: (§1) What is the reason for continued focus on cage development? […] The first good caged glutamate was CNB-Glu (Weiboldt, et al., 1994). UV-laser excitation released glutamate quickly and with usable efficiency from this caged compound. […] For this reason, Bhc- and DMCNB-Glu were synthesized (Furuta et al., 1999; Ellis-Davies, 1999). […] However, when used for 2-photon photolysis MNI-Glu is applied at high concentrations (5-12 mM) that must be irradiated with powers at the very limit of tolerance for brain tissue (Matsuzaki, et al., 2004). For this reason, an even better caged glutamate is desired. An NI-Glu derivative was made containing a cross-linked benzophenone chromophore (“antenna-NI-Glu”, Papageorgiou, et al., 2004). When UV light (300-308 nm) was used to excite the benzophenone antenna, triplet energy transfer to the MNI cage released glutamate with high efficiency, which dropped considerably (ca. 2.5-fold) at 354 nm. […] In contrast, the inventor was able to uncage CDNI-Glu at 354 nm with very high efficiency (similar to the antenna-NI-Glu at 300 nm).
Given the power-squared law for 2-photon excitation (Denk, et al., 1990), this implies that the new chromophore is about 140-250 higher action cross-section for 2-photon uncaging, defined by Denk et al. (1990).
(§2) In order to evoke currents with CNI-GABA 20 mW for 2 ms and 10 mM must be used, whereas with CDNI-GABA only 4 mW and 0.5 mM are required. […] The effectiveness of CDNI-GABA is believed to be an important asset because high concentrations of the cages block GABA receptor before uncaging.
AMPA receptor currents evoked by 2-photon uncaging of MNI-Glu and CDNI-Glu on CA1 pyramidal neurons in acutely isolated brain slices were compared. An image of neuron from slice of hippocampus Post-natal day 15 (P15) rat brain was obtained. MNI-Glu and CNDI-Glu were applied at 10 mM and 2.5 mM to the same neuron, and glutamate was uncaged in the image area at 2 power levels according to methods previously described in Matsuzaki, et al., 2001 (compare FIGS. 5A & 5B, MNI-Glu currents shown on right hand side, CDNI-Glu currents shown on left hand side). The currents evoked by uncaging from CNDI-Glu were approximately 2-3× larger than MNI-Glu, implying 5-10× better reactivity for 2-photon uncaging.

Another series has as its system AMPA receptors. The series can be described thus: 2-photon uncaging of caged glutamate, AMPA receptor currents on CA1 pyramidal neurons in acutely isolated brain slices. It is filed as cell-based, rat.
A short description of series [4]: Hydrolysis of solutions stored at 4° C. It is filed as physicochemical. The method, then: as §1
Series [5] can be described thus: Solubility in physiological buffer. In kind it is physicochemical. The settings on record: for solubility (in words): physiological buffer / pH. The procedure: as §2
Advantageously, inventor had discovered that addition of the negative charge with CDNI-Glu solves both of these problems

The conditions of series [6]: laser flash photolysis (Gee, et al., 1994); cited from earlier work.
The subject of series [7] is GABA receptors. The settings on record: outside-out membrane patches (Jayaraman, et al., 1999); cited from earlier work.
The conditions of series [8]: 1 GM=10^−50 cm^4s/photon; background; cited from earlier work.
For series [9] the following is noted: background; cited from earlier work.

Values joined by “and” are separate entries in the source; they are usually repeats but may differ in a detail not shown here. Equal values may be shown once.

Take `NCCCC(=O)N1CCc2c(OCC(=O)O)c([N+](=O)[O-])cc([N+](=O)[O-])c21` [CDNI-GABA, (1-[4-Aminobutanoyl]-5,7-dinitroindolin-4-yloxy)acetic acid]: in [1], the “ε, molar extinction coefficient” value is on record as 8,600 M^−1 cm^−1; the “φ, quantum yield” value is listed as 0.6; the “quantum yield of photolysis” value is given as 0.6; the “photolyzed faster than MNI-Glu” value is listed as 700%. For the same compound, in series [1], the “ε · φ” value stood at 5160. In addition, in the series with GABA receptors [2], the “concentration of caged compound required to evoke currents” value was 0.5 mM and 0.55 mM; the “laser power required to evoke currents” value turned out to be 4 mW; the “block of GABA receptor by the cage before uncaging” value is recorded as “not blocking before uncaging”. Further, the “effectiveness relative to CNI-GABA” value with GABA receptors [2] (GABA receptors on CA1 neurons) is 5-10 times. Besides, in [3], the “δ (relative), two-photon action cross section” value was 5-10.
As for `N[C@@H](CCC(=O)N1CCc2c(OCC(=O)O)c([N+](=O)[O-])cc([N+](=O)[O-])c21)C(=O)O` [CDNI-Glu], in series [1], the “ε, molar extinction coefficient” value is given as 8,600 M^−1 cm^−1; the “φ, quantum yield” value worked out at 0.5; the “quantum yield of photolysis” value was “about 0.5”; the “ε · φ” value was 4,300. In addition, the “release of L-glutamate on photolysis” value in [1] (NMR analysis of the reaction mixture) was “essentially quantitatively”. The “quantum yield for release of L-glutamate” value in [1] (pH 7.4) is recorded as “about 0.5”. Also, in the series with AMPA receptors (2.5 mM vs MNI-Glu 10 mM on the same neuron, P15 rat hippocampus slice, listed as CNDI-Glu), the “currents evoked by 2-photon uncaging, times larger than MNI-Glu” value was 2-3 times and 3-4 times. Besides, the “biological inertness of the cage toward AMPA receptors” value in the series with AMPA receptors (before uncaging) is given as “biologically inert”. For the same compound, the “rise- and decay-times of the evoked currents compared with MNI-Glu” value in the series with AMPA receptors (same CA1 pyramidal neuron) is “similar”. Moreover, the “AMPA-receptor currents relative to MNI-Glu” value in the series on AMPA receptors (sequential alternating application and uncaging on the same CA1 pyramidal neuron, same laser energy) is recorded as “five-times larger”. In addition, the “action cross-section for 2-photon uncaging, higher than MNI-Glu” value in [3] (implied by power-squared law for 2-photon excitation) is 140-250. Moreover, the “δ (relative), two-photon action cross section” value in series [3] was 5-10. For the same compound, the “hydrolysis after 13 d” value in series [4] was found to be 7%. In addition, the “solubility (in words)” value in [5] is listed as “smooth solubilization of useful concentrations”.
Consider `NCCCC(=O)OC(C(=O)O)c1ccccc1[N+](=O)[O-]` (centres unmarked) [CNB-GABA], for which the “half-time of neurotransmitter release” value in series [6] is “about 30 microseconds”. The “10-90% rise time of activated currents” value with GABA receptors [7] is recorded as “about 8 ms”.
For the compound `N[C@@H](CCC(=O)OC(C(=O)O)c1ccccc1[N+](=O)[O-])C(=O)O` (some centres unmarked) [CNB-Glu], the 2-photon cross section entry in [8] is “less than 0.001 GM”. Also, the “hydrolytic stability (in words)” value in series [9] is “some what hydrolytically unstable”.
On to `NCCCC(=O)N1CCc2c(OCC(=O)O)ccc([N+](=O)[O-])c21` [CNI-GABA], for which, in [1], the “ε, molar extinction coefficient” value is reported as 4,300 M^−1 cm^−1; the “φ, quantum yield” value was 0.1; the “quantum yield of photolysis” value is 0.1; the “photolyzed faster than MNI-Glu” value was “about 10%”. The “ε · φ” value in series [1] came to 430. Also, in the series on GABA receptors [2], the “concentration of caged compound required to evoke currents” value was found to be 10 mM, the “laser power required to evoke currents” value amounted to 20 mW and the “block of GABA receptor by the cage before uncaging” value was “partially blocks”. Also, the “δ (relative), two-photon action cross section” value in [3] is 1.
As for `NC(CCC(=O)N1CCc2c(OCC(=O)O)ccc([N+](=O)[O-])c21)C(=O)O` (centres unmarked) [CNI-Glu, 4-carboxymethoxy-7-nitroinlinylglutamate], in [1], the “ε, molar extinction coefficient” value is 4,300 M^−1 cm^−1; the “φ, quantum yield” value is 0.1; the “quantum yield of photolysis” value is recorded as “about 0.1”; the “ε · φ” value is 430. The “fraction photolyzed during the time required for complete photolysis of CDNI-Glu” value in [1] (NMR analysis of a photolysis solution of 7, CNI-Glu and CDNI-Glu) is recorded as “about 10%”. In addition, in [3], the “δ (relative), two-photon action cross section” value is recorded as 1.
In the case of `COc1c([N+](=O)[O-])cc([N+](=O)[O-])c2c1CCN2C(=O)CCC(N)C(=O)O` (centres unmarked) [MDNI-Glu, 4-methoxy-5,7-dinitroinlinylglutamate], the “current signals from hippocampal neurons on 2-photon uncaging” value in the series on AMPA receptors (1 mM solutions) is reported as “did not evoke any current signals”. Further, the “concentration of solutions that could be made” value in series [5] was at least 1000 µM. The “behaviour of buffer solution when frozen” value in series [5] (buffer, frozen, then room temperature) is “precipitate in buffer when frozen”.
On to `COc1ccc([N+](=O)[O-])c2c1CCN2C(=O)CCCN` [MNI-GABA], for which the “solubility (in words)” value in [5] is reported as “not soluble enough for uncaging”.
For the compound `COc1ccc([N+](=O)[O-])c2c1CCN2C(=O)CC[C@H](N)C(=O)O` [MNI-Glu, Methoxynitroindoline-caged L-glutamate, reference compound], in series [1], the “ε, molar extinction coefficient” value is reported as 4,300 M^−1 cm^−1; the “φ, quantum yield” value is on record as 0.085; the “ε · φ” value is 366. Besides, in series [3], the “δ (relative), two-photon action cross section” value is on record as 1. For the same compound, in series [4], the “hydrolysis after 2 d” value is “no detectable hydrolysis” and the “hydrolysis after 13 d” value was determined as 1%.
